Measured values reported in patent publication US20200383985A1, “Inhibitors of Protease Activated Receptor-2” (Endosome Therapeutics, Inc., priority 2017, published 2020).
pIC50: −log10 of the molar value. Read-outs that look alike come from different tables or passages of the source.

Assays:
Type in all cases: cell-based
human (h) PAR2 = biological target: T1, human (h) PAR2 (Homo sapiens, UniProt P55085); test: IP1 accumulation assay in KNRK-hPAR2 cells; conditions: 100 nM 2F; 30 μM of antagonist; read-out: KNRK-PAR2 100 nM 2F: ND (inhibition of 2F at 30 μM of antagonist)
T1 construct: expressed in transfected cells; host or cells: KNRK cells (KNRK-hPAR2)
T1 sequence (P55085 26-397): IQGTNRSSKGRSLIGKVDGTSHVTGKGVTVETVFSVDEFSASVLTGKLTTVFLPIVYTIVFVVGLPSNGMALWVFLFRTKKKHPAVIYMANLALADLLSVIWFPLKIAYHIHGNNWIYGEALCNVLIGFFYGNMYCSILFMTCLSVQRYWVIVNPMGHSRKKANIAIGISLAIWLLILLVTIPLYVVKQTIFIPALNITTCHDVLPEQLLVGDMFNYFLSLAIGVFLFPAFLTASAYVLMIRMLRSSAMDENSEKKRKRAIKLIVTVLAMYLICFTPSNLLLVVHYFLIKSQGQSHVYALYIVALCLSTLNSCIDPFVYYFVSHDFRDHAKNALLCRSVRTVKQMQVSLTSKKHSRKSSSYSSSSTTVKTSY
Method: (§1) KNRK-hPAR2, KNRK or HT-29 cells were seeded at a density of 50×10^3 cells/well in a clear poly-d-lysine coated 96 well tissue culture plate. Following 24 h incubation at 37° C. and 5% CO2, media was removed and replaced with 80 μl IP1 stimulation buffer (10 mM HEPES, 1 mM CaCl2, 0.5 mM MgCl2, 4.2 mM KCl, 146 mM NaCl, 5.5 mM glucose, 50 mM LiCl). Following stimulation buffer addition, the wells received 10 μl of 10× antagonists or DMSO vehicle. All plates were further incubated at 37° C., 5% CO2 for 30 min. 10 μl of 2F or ATP was added to the plates and further incubated for 40 min. Following incubation, stimulation buffer was quickly removed by aspiration and replaced with 25 μl lysis buffer (IP-One HTRF® assay kit, Cisbio). Following incubation of the lysates at 37° C., 5% CO2 for 10′, 10 μl lysate was transferred to a 384-well OptiPlate (PerkinElmer) and detected using the IP-One HTRF® assay kit (Cisbio).
(§2) Compounds of the invention (added at 10×concentrations in a 10 μL volume) were incubated for 30 min prior to the addition of 10 μM ATP or 100 nM or 300 nM PAR2 agonist (2F; EC80, added at 10×concentrations in a 10 μL volume) and then further incubated for 40 min. After lysis, the inositol phosphate 1 was quantified with IP-One HTRF® assay kit, Cisbio. The data was analysed with Prism, GraphPad to calculate the IC50 values, shown below in Table 1.
(§3) Inhibition of PAR2 signaling with known PAR2 inhibitor I-343 (FIG. 14A) was investigated in HT-29 cells and HEK293 cells, which express endogenous PAR2, and in KNRK cells expressing human (h) PAR2. Accumulation of inositol phosphate-1 (IP1) was measured in response to the PAR2-selective agonist 2-Furoyl-LIGRLO-NH2 (2F), an analogue of the trypsin-exposed tethered ligand, or trypsin.
(§4) KNRK-hPAR2, KNRK, HEK293, or HT-29 cells were seeded at a density of 50×10^3 cells/well onto clear 96-well plates (PerkinElmer). After 24 h of culture, medium was replaced with IP1 stimulation buffer (10 mM HEPES, 1 mM CaCl2, 0.5 mM MgCl2, 4.2 mM KCl, 146 mM NaCl, 5.5 mM glucose, 50 mM LiCl; 37° C., 5% CO2.). Cells were pre-incubated with the antagonist or vehicle for 30 min prior to the addition of agonist. Cells were then further incubated for 40 min. Stimulation buffer was […]

PAR2 = biological target: T2, PAR2 (Homo sapiens, UniProt P55085); test: IP1 accumulation assay in HT-29 cells (endogenous PAR2); conditions: 2F (300 nM)-induced IP1, HT-29 cells
T2 construct: HT-29 cells and HEK293 cells, which express endogenous PAR2; endogenous in cells; host or cells: HT-29
T2 sequence (P55085 26-397): T1 sequence (P55085 26-397)
Method: as §1, §2, §3, §4

mouse DRG neurons [1] = test: Patch clamp rheobase of DRG neurons: protease-induced hyperexcitability of nociceptors
mouse DRG neurons [2] = test: Patch clamp rheobase of DRG neurons: IBS-D biopsy supernatant-induced hyperexcitability
Method: An investigation as whether proteases from mucosal biopsies of IBS patients cause a persistent hyperexcitability of nociceptors was conducted by a mechanism that entails endosomal signaling of PAR2. Biopsies of colonic mucosa from patients with diarrhea-predominant IBS (IBS-D) or healthy control (HC) subjects were placed in culture medium (24 h, 37° C.). Mouse DRG neurons were then exposed to biopsy supernatants (30 min, 37° C.) and washed. Rheobase was measured 30 min after washing to assess persistent hyperexcitability. Supernatants of biopsies from IBS-D patients caused a persistent decrease in rheobase, consistent with hyperexcitability, when compared to supernatants from HC subjects (rheobase at 30 min: HC, 78.33±4.41 pA, 12 neurons, supernatant from 4 HC; IBS-D, 54.55±4.74 pA, 11 neurons, supernatant from 4 IBS-D; P<0.05; ANOVA, Tukey's multiple comparisons test) (FIG. 6A, B). I-343 (10 μM), Dy4 (dynamin inhibitor, 30 μM) and PD98059 (MEK1 inhibitor, 50 μM) abolished IBS-D-induced hyperexcitability of nociceptors (FIG. 6A-D).
The Queen's University Human Ethics Committee approved human studies. All subjects gave informed consent. Endoscopic biopsies were obtained from the descending colon of 13 adult IBS-D patients (12 female) diagnosed using ROME III criteria for diarrhea predominant IBS and of 12 health controls. All IBS patients had symptoms greater than 1 year and most were greater than 5 years. Celiac disease was excluded by blood test and patients over 40 years with daily diarrhea were biopsied at the time of colonoscopy to exclude microscopic colitis. […] Biopsies (8 samples per patient) were incubated in 250 μl of RPMI medium containing 10% fetal calf serum, penicillin/streptomycin and gentamicin/amphotericin B (95% O2/5% […], 24 h, 37° C.). Supernatants were stored at −80° C. Supernatants from 4-6 patients were pooled and studied in individual experiments.
DRG innervating the colon (T9-T13) were collected from C57BL/6 mice. Ganglia were digested by incubation in collagenase IV (1 mg/ml, Worthington) and dispase (4 mg/ml, Roche) (10 min, 37° C.). DRG were triturated with a fire-polished Pasteur pipette, and further digested (5 min, 37° C.). Neurons were washed, plated onto laminin- (0.017 mg/ml) and poly-D-lysine- (2 mg/ml) coated glass coverslips, and were maintained in F12 medium containing 10% fetal calf serum, penicillin and streptomycin (95% air, 5% CO2, 16 h, 37° C.) until retrieval for electrophysiological studies.
Small-diameter (<30 pF capacitance) neurons were studied because they display characteristics of nociceptors (Valdez-Morales E. E. et al., Am J Gastroenterol 2013, 108(10): 1634-1643). Changes in excitability were quantified by measuring rheobase. Whole-cell perforated patch-clamp recordings were made using Amphotericin B (240 μg/ml, Sigma Aldrich) in current clamp mode at room temperature. The recording chamber was perfused with external solution at 2 ml/min. Recordings were made using Multiclamp 700B or Axopatch 200B amplifiers, digitized by Digidata 1440A or 1322A, and processed using pClamp 10.1 software (Molecular Devices). Solutions had the composition (mM): pipette—K-gluconate 110, KC130, HEPES 10, MgCl2 1, CaCl2 2; pH 7.25 with 1 M KOH; external—NaCl 140, KCl 5 HEPES 10, glucose 10, MgCl2 1, CaCl2 2; pH to 7.3-7.4 with 3 M NaOH. […] Neurons were also preincubated with trypsin (50 nM, 10 min), NE (390 nM, 30 min), CS (500 nM, 60 min), or vehicle (37° C.), and washed. Rheobase was measured at T 0 or T 30 min after washing. To investigate mechanisms of protease-evoked effects, neurons were incubated with I-343 (100 nM, 300 nM, 10 μM, 30 min preincubation), SCH79797 (1 μM, 10 min), Dy4 (30 μM, 30 min), PS2 (15 μM, 30 min), PD98059 (50 μM, 30 min), GF109203X (10 μM, 30 min), or vehicle (preincubation and inclusion throughout). In experiments using the tripartite antagonist, neurons were preincubated with Compound 10 (30 μM, 60 min, 37° C.) or vehicle and washed. […]

[3] = I-343 10 μM, Dy4 30 μM, PD98059 50 μM

| Structure (SMILES) | inhibition at 30 µM (human (h) PAR2) [%] | pIC50 (PAR2; read-out: HT-29 300 nM 2F (IC50)) | IC50 (PAR2; read-out: HT-29 300 nM 2F pIC50 ± SEM (converted)) [µM] | baseline rheobase (mouse DRG neurons [1]) | initial excitability at 0 min after trypsin (mouse DRG neurons [1]) | persistent response at 30 min after trypsin (mouse DRG neurons [1]) | excitability of neurons treated with HC supernatant (mouse DRG neurons [2]) | rheobase at 30 min, IBS-D supernatant (mouse DRG neurons [2]) [pA] | persistent actions of IBS-D supernatant on nociceptor excitability (mouse DRG neurons [2]; 30 μM, 60 min preincubation, washed) | initial trypsin-induced hyperexcitability (mouse DRG neurons [1]; PD98059 50 μM, GF109203X 10 μM) | persistent trypsin-induced hyperexcitability (mouse DRG neurons [1]; PD98059 50 μM, GF109203X 10 μM) | IBS-D-induced hyperexcitability of nociceptors (mouse DRG neurons [2]; [3]) | rheobase of neurons exposed to HC supernatant (mouse DRG neurons [2]; [3]) |
| --- | --- | --- | --- | --- | --- | --- | --- | --- | --- | --- | --- | --- | --- |
| CC(C)CCCC(C)[C@H]1CCC2C3CCC4C[C@@H](OC(=O)CC(NC(=O)CCOCCOCCOCCOCCOCCOCCOCCOCCOCCOCCOCCOCCNC(=O)Cn5cc(C(=O)N6CCN(C(=O)c7cn8nc(-c9ccc(F)cc9)cc(C(C)(C)C)c8n7)C(C)(C)C6)nn5)C(N)=O)CC[C@]4(C)C3CC[C@@]21C (stereo in doubt) [Compound 10, (3S,10S,13R,17R)-10,13-dimethyl-17-((R)-6-methylheptan-2-yl)hexadecahydro-1H-cyclopenta[a]phenanthren-3-yl (44S)-1-(4-(4-(8-(tert-butyl)-6-(4-fluorophenyl)imidazo[1,2-b]pyridazine-2-carbonyl)-3,3-dimethylpiperazine-1-carbonyl)-1H-1,2,3-triazol-1-yl)-44-carbamoyl-2,42-dioxo-6,9,12,15,18,21,24,27,30,33,36,39-dodecaoxa-3,43-diazahexatetracontan-46-oate] | < 50 | 6.17 | 0.661 | no effect | did not affect | prevented | did not affect | 64.7±3.84 | completely prevented |  |  |  |  |
| COc1cccc(-c2cc(=O)c3ccccc3o2)c1N [PD98059] |  |  |  |  |  |  |  |  |  | did not affect | prevented | abolished | no effect |
